Measurements taken from a melting point compilation (Tetko et al.; mined from patent text by program, amines drawn as free bases though some values may be those of a salt).

Row | Structure (SMILES) | melting point [°C]
1 | O=C(NC(=O)c1ccc(C(F)(F)F)cc1)Nc1ccc(Cl)cc1 | 260
2 | Cc1cccc2c(Nc3cccc(OCCN(CCCl)CCCl)c3)c3cccc(C(=O)NCCN(C)C)c3nc12 | 129 to 130
3 | Nc1ccccc1C(=O)Nc1ccc(Br)c(C(F)(F)F)c1 | 142 to 144
4 | OCC12CCCN(CCC1)C2 | 64 to 65.5
5 | CCOC(=O)C[C@@H]1C(=O)N(S(=O)(=O)c2ccc(OC)cc2)C=C[C@@H]1c1ccco1 | 98 to 100
6 | CCOC(=O)C(Oc1ccc(Cl)cc1)C(=O)OCC | 43.5 to 45
7 | CCCCCCCCCCCCCCSCc1ccc(C(C)=O)o1 | 55 to 57
8 | Cc1ccc(CCc2nc3cc(-c4ccc(S(=O)(=O)N(C)C)cc4)cnc3[nH]2)nc1N | 157
9 | F[C@H]1C[C@H](COc2ccccc2Cl)N(c2ncnc3[nH]cnc23)C1 | 143 to 144
10 | O=C(O)COc1cc2c(c(Cl)c1Cl)C(O)C1(CCCC1)C2 (stereo unspecified) | 135
11 | COc1cccc(-n2c(=O)n(O)c(=O)c3cc(F)c(N4CCCC4)cc32)c1 | 216 to 218
12 | C=CC(=O)OCCNC(=O)CCc1cc(-n2nc3ccccc3n2)c(O)c(C(C)(C)C)c1 | 80 to 83
13 | C[C@@H]([C@@H](CC1CCC(c2ccccc2)CC1)C(=O)N[C@H](C(=O)Nc1nccs1)C(C)(C)C)N(O)C=O (stereo partly specified) | 213 to 214
14 | CCOC(=O)NC(=N)c1ccc(-n2cc(C)n(-c3ccc(CCC(=O)OC)cc3)c2=O)cc1 | 198 to 199
15 | CC(C)(C)CNc1cc(NCC(C)(C)C)nc(Cl)n1 | 178 to 185
16 | NC(=O)NNC(c1ccccc1)c1ccccc1 | 182 to 184
17 | O=C(O)CC(=O)Nc1ccc2c(=O)[nH]c(=O)n(CCCCN3CCC(OC(c4ccccc4)c4ccccc4)CC3)c2c1 | 230 to 232
18 | Cn1ncc(/C=C/C(=O)Nc2ccc(CS(C)(=O)=O)cc2)c1-c1ccc(F)cc1 | 251 to 252
19 | CC1(C)CC(=O)C2(CCC(=O)O)CC1C2 | 90 to 93
20 | NS(=O)(=O)c1cccc(-c2cccc(-c3nc(-c4ccc(F)cc4)cc(C(F)(F)F)n3)c2)c1 | 208
21 | CN1C(=O)CC[C@]2(C)c3ccc(-c4cc5ccccc5c5ccccc45)cc3CC[C@@H]12 | 218 to 220
22 | NC(=O)CCC(=O)NCCS | 173
23 | Cn1c(=O)c(-c2ccc(Cl)cc2Cl)cc2c3cc(I)ccc3n(C)c21 | 223 to 225
24 | COc1ccc2cc(C(C)C(=O)ON(C(N)=O)C(C)c3ccoc3)ccc2c1 (stereo unspecified) | 128 to 134
25 | CN1C(=O)CN=C(c2ccccc2)c2ccccc21 | 151 to 154

Row | Structure (SMILES) | melting point [°C]
26 | COC(=O)C=Cc1ccc(Cl)c(Cl)c1 | 114 to 115
27 | Cc1noc(NS(=O)(=O)c2ccsc2C(=O)Oc2ccc3c(c2)OCO3)c1Cl | 189 to 191
28 | CCCc1c(C(=O)NCc2ccc3cc(OCC(=O)OC)ccc3c2)cnn1-c1ccc(Cl)cc1 | 139 to 140
29 | CC(C)CN1C(=O)C2CC(c3ccc([N+](=O)[O-])cc3)(C2)C1=O | 136 to 137
30 | CC1(C)CC(O)c2cc(Br)ccc2O1 (stereo unspecified) | 97 to 99
31 | CCC(=O)OCOC(=O)C1=C(C)N(COC)C(C)=C(C(=O)O)[C@@H]1c1cccc([N+](=O)[O-])c1 | 54 to 56
32 | N#Cc1c(N2CCCCC2)cc(-c2ccc3ccccc3c2)c2c1-c1ccccc1C2 | 136 to 138
33 | OCC#Cc1ccccn1 | 78 to 80
34 | CCCCC(CC)C(=O)Nc1ccc2ccn(Cc3ccc(C(=O)O)cc3OC)c2c1 (stereo unspecified) | 234 to 235
35 | NC(=O)c1ccc2c(c1)C1(COc3cc4c(cc31)OCCO4)C(=O)N2Cc1ccccn1 (stereo unspecified) | 220 to 222
36 | Cc1ccc(S(=O)(=O)N2CCC[C@H](CBr)c3ccccc32)cc1 | 110 to 111
37 | CCOc1cc2ncc(C#N)c(Nc3ccc4c(c3)OCCO4)c2cc1OCC | 225 to 227
38 | O=C1CCc2ncc3cc(Cl)c(Cl)cc3c2N1 | 350
39 | CN(C=O)CCC12CCCn3c1c(c1ccccc13)CCO2 (stereo unspecified) | 111 to 113
40 | O=C(O)Cn1c(=O)c(=O)[nH]c2ccc3ccc(-n4ccc(CNC(=O)Nc5ccccc5)c4)cc3c21 | > 230
41 | COC(=O)c1cccc2oc(CBr)nc12 | 110 to 113
42 | Cc1ccc(S(=O)(=O)NC(=O)Nc2ccc(Cl)cc2)cc1 | 174 to 176
43 | C[C@H]1CN(c2c(F)c(N)c3c(=O)c(C(=O)O)cn(C4CC4)c3c2F)C[C@H]1CN (relative stereo) | 221 to 223
44 | CSC1=NC(=O)C(=Cc2cc(C(C)(C)C)c(O)c(C(C)(C)C)c2)N1C | 177 to 179
45 | CC(C)(C)NS(=O)(=O)c1c(C(Br)Br)nsc1OCC(F)(F)F | 135 to 138
46 | COC(=O)c1cc(C(=O)N2CCCC(=O)C2)c2cc(Cc3ccc(F)cc3)cnc2c1O | 228 to 229
47 | Cc1c(NC(=O)c2ccc(-c3ccc(F)cc3)cc2F)ccc2cc(CN3CCCC3)cnc12 | 176 to 178
48 | N#Cc1ccc2c(C#N)c3cc(C#N)ccc3c(C#N)c2c1 | 345
49 | O=c1c2ccc(Cl)cc2[nH]c2c(O)nn(Cc3ccoc3)c(=O)c12 | > 250

The next lines start with the values.

Row | melting point [°C] | Structure (SMILES)
50 | 226 to 229 | Cc1c(-c2ccccc2)oc2c(C=CC(=O)O)cccc2c1=O
51 | 105 to 110 | O=C(c1cc(N2CCOCC2)ccn1)N(O)Cc1ccccc1
52 | 278 | O=C1OC(=O)c2cc3c(ccc4ccccc43)cc21
53 | 74 to 75 | COc1cc(CC#N)ccc1OCC#Cc1ccccc1
54 | 61 to 62 | COc1cccc2c(CCBr)coc12
55 | 112 to 114 | COc1ccc(OC(C)c2ccnc3ncnn23)cc1 (stereo unspecified)
56 | 186 to 188 | COc1ccc2c3c(c(=O)oc2c1)CN(Cc1ccnc2ccccc12)CC3
57 | 193 to 194 | O=C(O)c1ccc(NCCOc2cccc3ccccc23)cc1
58 | 123 | COc1ccc(OCCCN2CCN(c3ccc(Cl)nn3)CC2)cc1
59 | 193 | C=C(C)COc1ccc(Br)cc1CN(CC)c1ccc(C(=O)NS(=O)(=O)c2ccccc2)cn1
60 | 67 to 69 | COC[C@H](Cc1ccccc1)Nc1nc(C)nc2c1nnn2-c1ccc(C(C)C)cc1Br
61 | 103 to 107 | CN1CCN(CCOc2ccc([C@H]3c4ccc(OCc5ccccc5)cc4OC[C@H]3c3ccccc3)cc2)CC1 (racemic)
62 | 105 to 106 | CN(C)C(=O)c1c(-c2ccccc2F)ccc2ccccc12
63 | 93 to 95 | COCCCNc1c([N+](=O)[O-])cnc2ccccc12
64 | 80 | COc1ccc(Cl)cc1C(CCO)c1ccccc1 (stereo unspecified)
65 | 81 to 85 | COc1ccc(OC2COc3ccc(OC(C)c4ccc5ccccc5n4)cc3C2O)cc1 (stereo unspecified)
66 | 75 to 80 | NCCN1CCOC(c2ccccc2)(c2ccccc2)CC1
67 | 196 to 197 | Nc1nc2ccccc2c2c1ncn2CCOCC#Cc1ccccc1
68 | 152 to 155 | COc1cc(Nc2nc(O)c3c(n2)C(c2ccccc2)CN(C)C3)ccc1-n1cnc(C)c1 (stereo unspecified)
69 | 188 | COc1cc(CCCN2CCc3cc(OC)c(OC)cc3C2)ccc1NC(=O)c1cccc2c(=O)c3cccc(OC)c3[nH]c12
70 | 149 to 150 | Cn1nc(C(=O)O)cc1-c1ccccc1
71 | 169 to 170 | CCCOc1ccc2c(c1)C(c1ccccc1OCC(=O)O)C(C(=O)O)C2c1ccc2c(c1)OCO2 (stereo unspecified)
